The values that follow are results of earlier work, collected in patent US7217431B2, “Controlled agglomeration” (LifeCycle Pharma A/S, priority 2001, dated 2007).

Read-outs that look alike come from different tables or passages of the source.

As to `COc1ccc(CCN2CCC(Nc3nc4ccccc4n3Cc3ccc(F)cc3)CC2)cc1` [Astemizole], the Bioavailability entry (Table 2, in words) is “Low–moderate”. As for `C#C[C@]1(O)CC[C@H]2[C@@H]3CCC4=Cc5oncc5C[C@]4(C)[C@H]3CC[C@@]21C` [Danazol], under “Table 2, in words”, the Bioavailability result is on record as “Low”. Regarding `OCCN1CCN(CCCN2c3ccccc3Sc3ccc(Cl)cc32)CC1` [Perphenazine], where the note is “Table 2, in words”, the Bioavailability entry was “Low”. As to `CC1CC(OC(=O)C(O)c2ccccc2)CC(C)(C)C1` (centres unmarked) [Cyclandelate], the Bioavailability entry (Table 2, in words) was “Low”. Take `CC(=O)OC[C@H]1O[C@@H]([S-])[C@H](OC(C)=O)[C@@H](OC(C)=O)[C@@H]1OC(C)=O.CCP(CC)CC.[Au+]` [Auranofin]: the Bioavailability entry (in vivo) is reported as “Low (15–25%)”.
